In a melting point compilation (Tetko et al.; mined from patent text by program, amines drawn as free bases though some values may be those of a salt):

Structure (SMILES) | melting point [°C]
Cc1cc(S(=O)(=O)N2c3ccccc3CC2C(=O)NCCOc2ccc(CC(=O)O)cc2)ccc1-c1cccc(C(F)(F)F)c1 (centres undefined) | 92
COc1cc(Nc2nccc(-c3ccccn3)n2)cc(OC)c1OC | 185
CC(C)(C)OC1CCCC2C(=O)CCCC12C (centres undefined) | 78 to 79
Cn1c(=O)n(-c2cc(Cl)ccc2O)c2ccc(F)cc21 | 247 to 250
CC(C)Oc1cccc2oc(-c3ccccc3)cc(=O)c12 | 98 to 99
OC1CCC(c2ccc(OCCCCCCCCCCCBr)cc2)CC1 (centres undefined) | 100 to 101
COc1cc2c(cc1-c1cc(F)ccc1F)NC(=O)CC(c1cccc(-n3ccnn3)c1)=N2 | 241
Cc1cccc(NC(=O)NC2C(=O)N(CC34CC5CC(CC(C5)C3)C4)c3ccccc3N(c3ccccc3)C2=O)c1 (centres undefined) | 244 to 246
COc1ccccc1N1CCc2c1c1cccc(OC)c1[nH]c2=O | 185 to 188
O=C(Cl)C(OCc1ccc(-c2ccc(Cl)cc2)cc1)(C(F)(F)F)C(F)(F)F | 30 to 35
CCCCn1c(=O)c(NC(=O)Nc2cc(Cc3cc[nH]n3)ccc2C(C)(C)C)c(-c2cccc(OCCCO)c2)c2cccnc21 | 116 to 119
O=C(O)CC(CSc1nc2ccccc2s1)C(=O)O (centres undefined) | 136 to 139
O=CCC(=O)Nc1ccccc1 | 150 to 153
CCCCc1nn(-c2cc(NC(=O)CC)ccc2C(F)(F)F)c(=O)n1Cc1ccc(-c2ccccc2S(=O)(=O)NC(=O)c2ccccc2F)cc1F | 119 to 122
O=C(C=Cc1ccc(C(F)(F)F)cc1-c1nccs1)Nc1ccc2[nH]ccc2c1 | 203 to 204
CC(C(=O)O)c1ccc(N2CC3=C(CC=CC3)C2=O)cc1 (centres undefined) | 220 to 222
Nc1cccc(CC(=O)O)c1 | 116 to 121
Cn1c(C(F)(F)F)cc(=O)n(Cc2cc(I)cc(Cl)c2Cl)c1=O | 142 to 144
O=C(NN=Cc1c(O)c(O)cc2ccccc12)c1cc2ccccc2cc1O | > 285
CSc1nn2c(N3CCN(C)CC3)cc(C)nc2c1S(=O)(=O)c1ccc(C(C)C)cc1 | > 230
CCOC(=O)C(=CNC1CC1)C(=O)c1cc(F)c(F)c(OC)c1F | 56 to 58
N#CC1CN1C(=O)NC(=O)CC1CCCCC1 (centres undefined) | 142 to 144

Structure (SMILES) | melting point [°C]
CCc1nc2c(N)nc3ccccc3c2n1CC1(O)CCOCC1 | > 250
CC(C)(C)COc1cccc(C[C@@H](NC(=O)c2cccc3c2C=CCCC3)[C@@H](O)c2cccc(Cl)c2)c1 (racemic) | 128 to 129
Cc1cc(C)cc(CC(=O)c2ccncc2)c1 | 96 to 97
CCN1CCCc2cc(C(=O)c3ccc4c(c3)CCCN4CC)ccc21 | 120
NC(=O)n1nc(-c2ccc(F)cc2)cc1N | 140
COc1cc2c(Nc3cccc(Cl)c3F)ncnc2cc1OC1CCN(C(=O)[C@@H](O)C(C)(C)C)CC1 | 205 to 206
Cc1ccc([N+](=O)[O-])cc1COCC(F)(F)C(F)(F)F | 53.5 to 54.5
CCOC(=O)CCNC(=O)Nc1ccccc1CCc1cc(C(C)(C)C)c(O)c(C(C)(C)C)c1 | 158 to 159
C#CC(C)(C)OC(=O)Nc1ccc(-c2ncn(-c3ccc(OC(F)(F)F)cc3)n2)cc1 | 164 to 165
CN(CCNc1ncc(Cc2ccc(Cl)cc2)c(=O)[nH]1)c1ccccn1 | 172 to 174
CCCCCCCNC(=O)Nc1ccc(O)cc1C(=O)NCCC(c1ccccc1)c1ccccc1 | 161 to 162
COc1ccc(Cc2ccc(C(=O)N(C3CCCC3)C3CCCC3)cc2)cc1OC | 138 to 142
COC1(c2ccccc2)CCc2c(C(=O)N3CCC3)cc3c(nc(C)n3C)c2O1 (centres undefined) | 147 to 150
Cc1cccc(C)c1NNC(=O)OCCCl | 74 to 75
CC(C)N1CC(CO)C(c2ccccc2)(c2ccccc2)C1=O (centres undefined) | 159 to 161
CN1CCN(C(=O)c2c(Br)c(Br)c([N+](=O)[O-])c3c2OCCO3)CC1 | 164
COc1ccc(C(=O)N2CCC(CCN3CCC(Nc4nc5ccccc5[nH]4)CC3)(c3ccccc3)C2)c(OC)c1OC (centres undefined) | 112 to 119
Cc1ccc(-c2ccc(C(=O)Nc3ccc4cc(CN5CCCC5)cnc4c3C)cc2)cc1 | 177 to 179
CCN(COC)c1cc(-c2ccnc(Nc3cccc(Cl)c3)n2)ccn1 | 114 to 115
Clc1ccc(-c2c(-c3ccncc3)nc(-c3c(Cl)cccc3Cl)n2C2CC2)cc1 | 210 to 211
c1cc2c(s1)CNCCS2 | 138 to 139
O=C(Nc1ccc2oc3c(c2c1)CCCC3)c1ccc(Cl)cc1 | 214

Structure (SMILES) | melting point [°C]
CONS(=O)(=O)c1cc(Cl)ccc1Cl | 127 to 128
O=C1C2Cc3c(nc(Br)n3Cc3ccccc3)CN2C(=O)N1c1ccccc1 (centres undefined) | 267 to 269
O=C(c1ccc(F)cc1)c1ccc(C#Cc2ccc(F)cc2)cc1 | 190 to 191
CC(C)(C)OC(=O)N[C@@H](Cc1ccc(-c2ccccc2)cc1)C(=O)OCc1ccccc1 | 98.3 to 100
CC(C)(C)OC(=O)NCC(=O)NNc1ccc(N)cc1 | 144
COc1ncnc2c(NC3OC(CO)C(O)C3O)ncnc12 (centres undefined) | 183
Nc1nc(=O)n(C(=O)c2cc(F)cc(F)c2)cc1F | 227 to 231
O=C1CNc2ncc(I)cc2N1Cc1c(Cl)cccc1Cl | > 200
CCO[C@@H](Cc1ccc(OCCc2nc(-c3ccc(C(F)(F)F)cc3)oc2C)c2ccccc12)C(=O)O | 153 to 155
NC(=O)OCc1ccc(CNC(=O)[C@@H](CCCNC(N)=N[N+](=O)[O-])NC(=O)C(c2ccccc2)c2ccccc2)cc1 | 130 to 132
CC(C)C(=O)c1cn(Cc2c(F)cccc2F)c2sc(-c3ccc(NC(=O)C(C)(C)O)cc3)c(CN(C)Cc3ccccc3)c2c1=O | 178 to 180
Cc1cc(Cl)ccc1N1CCCN(C)C1=S | 143 to 145
Nc1nc2c(s1)CCN(C/C=C\c1cccc3c1CC(=O)N3)CC2 | 192 to 195
O=c1cc(CCCl)c2ccccc2[nH]1 | 186 to 187
Cc1ccc2c(=O)c(OC(=O)c3ccccc3)cn(C)c2c1 | 200 to 202
CN(C)C(=O)c1ccc(C(=O)Nc2cccc3cc(Br)cnc23)cc1 | 196 to 198
CCCCCCOc1ccc(-c2cc(CBr)ccc2CBr)cc1 | 38.5 to 40.5
Nc1ccc(CCN2CCN(c3nsc4ccccc34)CC2)cc1 | 154
Cc1[nH]c(N)c(C)c1-c1ccnc(Nc2ccc(F)cc2)n1 | 227 to 231
Nc1ccc(Oc2cc(F)c(C(F)(F)F)c(Cl)c2)cc1 | 55 to 57
Cc1nc(CS(=O)(=O)c2cccc(Cl)c2Cl)no1 | 105 to 107

Further lines, results first:

melting point [°C] | Structure (SMILES)
82 to 83 | O=C(CCc1ccccc1)c1cccnc1Oc1ccc(F)cc1
283 to 290 | CCOC(=O)c1cnc2cc(Cl)c(F)cc2c1O
192 to 194 | Cc1ccc(-c2nn(CCO)c(=O)c(-c3ccccc3)c2-c2ccc(C)cc2)cc1
178 to 180 | CC(=O)c1nc2c(cc1F)C[C@@H]1CN(C(=O)OC(C)(C)C)C[C@@H](C)N21
186 to 189 | Cc1cc(-c2cnc(N)c(C(=O)Nc3cccnc3)n2)ccc1F
105 to 106 | Nc1cccc(C#CC=Cc2cccc(N)c2)c1
> 300 | N#Cc1ccc(/C=C/c2nc[nH]c2[N+](=O)[O-])cc1
166 to 168 | Cc1c(NCCO)c(F)cc2c(=O)c(C(=O)O)cn(-c3cc(N)c(F)cc3F)c12
109 to 111 | COc1cccc(C23CCCC(C2)NC3=O)c1 (centres undefined)
59 to 62 | CCCC=Cc1c(C(C)C)nc(C(C)C)c(CO)c1-c1ccc(F)cc1F
170 | Fc1ccc(Cn2c(NC3CCN(CCNCCc4c[nH]c5ccccc45)CC3)nc3ccccc32)cc1
107 to 132 | Cc1cccc2sc3ccccc3c(=O)c12
122 to 124 | C=CCOC(=O)Cc1cccc(NC(=O)NCC(=O)N(CC(=O)OC(C)(C)C)c2ccccc2C(=O)c2ccccc2)c1
77 to 78 | N#Cc1cc(Cl)cc(Cl)c1Cl
158 to 160 | NCCc1nc(Cl)ccc1C(=O)O
108 to 110 | CC(C)(C)c1cc(N)n(-c2cccc(Oc3ccccc3)c2)n1
256 to 260 | O=S(=O)(Nc1nc2ncc(Cl)cn2n1)c1ccccc1Cl

melting point [°C] | Structure (SMILES)
195 to 198 | CN(C)C=NS(=O)(=O)c1nc2ccc(O)cc2s1
111 to 113 | NC12CCCC(C1)C1CCC2C1 (centres undefined)
36 | CCC[C@H]1CC[C@H](c2ccc(CCc3ccc(C#N)cc3)cc2)CC1
116 to 118 | CC(CC(=O)O)CC(=O)Nc1ccc(Cl)cc1 (centres undefined)
126 to 127 | O=C(c1ccccc1)n1c(=O)c(F)cn(C2CC(O)C(CO)O2)c1=O (centres undefined)
102 to 103 | COc1nc(O)nn1C(C)C
205 to 207 | C=CCN1CCN(CCC(=O)N2c3ccccc3C(=O)Nc3cccnc32)CC1
228 to 229 | Cc1nn(-c2c(Cl)cc(C(F)(F)F)cc2Cl)nc1-c1nc(C#N)c(C#N)[nH]1
73.6 to 79.1 | CCOC(=O)C(O[Si](C)(C)C)C(O[Si](C)(C)C)c1cc2c(cc1[N+](=O)[O-])OCO2 (centres undefined)
187 | CC(C)c1ccc(N(Cc2ccc(N(C)C)nc2)C(=O)C2CCCc3c(O)cccc32)cc1 (centres undefined)
247 to 249 | CN(C)CCNC(=O)NCc1ccc2c(c1)-c1[nH]nc(-c3ccsc3)c1C2
125 to 130 | Cc1c(-c2ccc(O)cc2)n(Cc2ccc(OCCCN3CCCCC3)cc2)c2ccc(O)cc12
118 to 125 | O=C1NC(=O)C(c2cn(CCCO)c3ccc(F)cc23)=C1c1cccc(NCC(O)CO)c1 (centres undefined)
169 to 170 | COC(=O)N1CC[C@H](NC(C)=O)C[C@H]1Cc1ccc(Cl)cc1 (relative stereo)
191 to 193 | COc1ccc(O)c(C2(CO)C(=O)N(Cc3ccc(C(F)(F)F)o3)c3cccc(Cl)c32)n1 (centres undefined)
188 to 192 | CCOCc1nc2c(N)nc3c(c2n1CCCCS(=O)(=O)NC)CCCC3
150 to 152 | CC(C)(C)N(CCc1ccccc1)NC(=O)c1ccccc1
